Earlier results, collected in patent US6989139B2, “Matrix metalloproteinase inhibitors” (Bristol-Myers Squibb Pharma Company, priority 2000, dated 2006).

How the values were obtained:
[1] = test system: MMP-2, MMP-9 vs MMP-1, MMP-3; conditions: Lovejoy et al 1999
[2] = test system: MMP's; conditions: literature statement

Row | Molecule | selectivity for MMP-2 and MMP-9 over MMP-1 [1] | MMP inhibitory activity [2]
1 | O=C(NO)C1(CS(=O)(=O)c2ccc(Oc3ccc(Cl)cc3)cc2)CCOCC1 [Example 13] | selectivity for MMP-2 and MMP-9 over MMP-1 | 
2 | CC(C)C[C@H]1C(=O)N[C@H](C(=O)NCc2ccc(CNC(=O)C(CS(=O)(=O)O)NC(=O)CN3CCN(CC(=O)O)CCN(CC(=O)O)CCN(CC(=O)O)CC3)cc2)Cc2ccc(cc2)OCCC[C@@H]1C(=O)NO (stereo partly drawn) [Example 6, 2-[7-({N-[1-(N-{[4-({[7-(N-hydroxycarbamoyl)(3S,6R,7S)-4-aza-6-(2-methylpropyl)-11-oxa-5-oxobicyclo[10.2.2]hexadeca-1(15),12(16),13-trien-3-yl]-carbonylamino}methyl)phenyl]methyl}carbamoyl)-2-sulfoethyl]carbamoyl}methyl)-1,4,7,10-tetraaza-4,10-bis(carboxymethyl)cyclododecyl]acetic Acid] |  | nanomolar activity
3 | 2-[2-({5-[N-(5-(N-hydroxycarbamoyl)(5R)-5-{3-[4-(3,4-dimethoxyphenoxy)phenyl]-3-methyl-2-oxopyrrolidinyl}pentyl)carbamoyl](2-pyridyl)}amino)(1Z)-2-azavinyl]benzenesulfonic Acid [Example 15] |  | good activity
4 | 2-[(2-{[(N-{[4-({[7-(N-hydroxycarbamoyl)(3S,6R,7S)-4-aza-6-(2-methylpropyl)-11-oxa-5-oxobicyclo[10.2.2)hexadeca-1(15),12(16),13-trien-3-yl]-carbonylamino}methyl)phenyl]methyl}carbamoyl)methyl](carboxymeth yl)amino}ethyl){2-[bis(carboxymethyl)amino]ethyl}amino]acetic Acid [Example 8] |  | potent inhibition
